Source: US20250222062A1, “PEPTIDE INHIBITORS TARGETING THE TBL1-BETA-CATENIN COMPLEX” (THE TRANSLATIONAL GENOMICS RESEARCH INSTITUTE, priority 2022, published 2025)
Where no end group is shown, it is not given here.

Tests used:
[1] = target: T1, TBL1/β-catenin complex (Homo sapiens, UniProt O60907); experiment: Sandwich ELISA peptide library screening in colon cancer cell lysates; format: binding; settings: screening of individual peptides, FIG. 7
T1 construct: TBL1/β-catenin complex from lysates of a colon cancer cell with active Wnt signaling was captured; endogenous in cells; host or cells: HCT15 and SW480 colon cancer cell lysates, cells pre-treated with 20 mM LiCl
T1 sequence (O60907 1-577): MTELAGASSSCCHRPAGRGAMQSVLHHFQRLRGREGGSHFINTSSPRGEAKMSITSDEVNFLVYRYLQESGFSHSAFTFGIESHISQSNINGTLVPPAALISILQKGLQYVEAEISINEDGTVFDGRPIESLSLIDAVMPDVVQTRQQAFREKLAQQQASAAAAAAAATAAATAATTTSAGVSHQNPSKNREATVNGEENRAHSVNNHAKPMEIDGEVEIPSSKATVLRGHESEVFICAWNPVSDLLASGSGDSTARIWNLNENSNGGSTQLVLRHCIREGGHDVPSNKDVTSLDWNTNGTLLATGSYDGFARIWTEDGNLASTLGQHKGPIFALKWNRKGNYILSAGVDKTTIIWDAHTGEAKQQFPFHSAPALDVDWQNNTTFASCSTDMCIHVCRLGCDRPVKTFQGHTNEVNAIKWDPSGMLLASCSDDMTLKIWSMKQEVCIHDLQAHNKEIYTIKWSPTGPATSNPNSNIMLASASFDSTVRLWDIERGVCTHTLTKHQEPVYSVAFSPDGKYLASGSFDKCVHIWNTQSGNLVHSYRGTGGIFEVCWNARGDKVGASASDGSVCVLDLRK
Description: To identify the peptide or peptides able to disrupt the interaction between TBL1 and (3-catenin, the sandwich ELISA approach was used (see FIG. 4). In this assay TBL1/β-catenin complex from lysates of a colon cancer cell with active Wnt signaling was captured in a Protein G ELISA 96-well plate coated with antibody that recognizes TBL1. To ensure activation of Wnt signaling, the cells were pre-treated with 20 mM LiCl for 12 h a 37° C. The bound complex was then exposed to peptides from the library either as single peptides or in a combination of 2 or 3 peptides to ensure coverage of the potential binding site between TBL1 and β-catenin. After washing away unbound proteins, the plates were incubated with β-catenin antibodies labeled with ALEXA FLUOR® 488 dye, and the level of β-catenin associated to TBL1 was quantified by a plate reader that detects the ALEXA FLUOR® 488 fluorescence probe. As a form of TBL1/β-catenin complex, we used colon cancer cell lines HCT15 and SW480. All the experiments were conducted in triplicate to ensure statistical significance. To reduce variability the assays were performed by using the EPMOTION® liquid handler. We designed a program that controls the peptide seeding into the ELISA plate wells: 1, 2 or 3 peptides per well, with overlap of one peptide in each well.
All wells in the screening were loaded with 1 mg/ml of lysate and incubated at 37° C. for 1 hour. After a wash, peptide combinations were added at a concentration of […] for each peptide and incubated at 37° C. for 2 hours followed by β-catenin detection as described. […] The SW480 lysate standard curve was generated by varying the concentration of lysate without any peptides present.
Additional screening was performed with the peptide library using the assay described in Example 2 with the colon cancer cell lines HCT15 and SW480.
Combinations of three peptides were subsequently assayed at varying concentrations to show a dose response in the disruption of the interaction between TBL1 and β-catenin.
To identify the peptide or peptides able to disrupt the interaction between TBL1 and (3-catenin, we tested the Sandwich ELISA approach. In this assay TBL1/β-catenin complex from lysates of colon cancer cell with active Wnt signaling, is captured in Protein G ELISA 96 well plate coated with antibody that recognizes TBL1. To ensure activation of Wnt signaling, the cells are pre-treated with 20 mM LiCl for 12 h a 37° C. The bound complex is then exposed to peptides from the library either as single peptide or in a combination of 2 or 3 peptides to ensure coverage of the potential binding site between TBL1 and β-catenin. After washing away unbound proteins, the plates are incubated with β-catenin antibodies labeled with Alexa Fluor 488 dye, and the level of β-catenin associated to TBL1 is quantified by a plate reader that detects the 488 fluorescence probe. As a font of TBL1/β-catenin complex we used colon cancer cell lines HCT15 and SW480. All the experiments are conducted in triplicated to ensure statistical significance, and to reduce variability we perform the assays by using the EpiMotion liquid handler. We designed a program that controls the peptide seeding into the ELISA plate wells: 1, 2 or 3 peptides per well, with overlap of one peptides in each well.

[2] = target: T2, TBL1 complex (β-catenin displacement) (Homo sapiens, UniProt O60907); experiment: Homologous competitive ELISA with increasing logarithmic peptide concentrations; format: binding; settings: increasing logarithmic concentrations of each peptide, FIG. 11
T2 sequence (O60907 1-577): T1 sequence (O60907 1-577)

[3] = target: T3, β-catenin bound to TBL1 (Homo sapiens, UniProt O60907); experiment: Pull-down assay with TBL1 in SW480 cells transfected with peptides, Western blot; format: cell-based; settings: FIG. 14
T3 construct: endogenous in cells; host or cells: SW480 colorectal cancer cells (only the peptides and the GFP control were transfected)
T3 sequence (O60907 1-577): T1 sequence (O60907 1-577)
From the text: FIG. 13 depicts a pull-down assay with TBL1 in the SW480 colorectal cancer (CRC) cell line transfected with the selected peptides.
Tegatrabetan (BC2059) is an antagonist of β-Catenin and was used as a positive control in the pull-down experiments. […] Green fluorescent protein (GFP) was also transfected into the SW480 cells as a negative control.

[4] = system: transcription downstream TCF/LEF; experiment: Washout TOPFlash assay; format: cell-based; settings: FIG. 18
Description: FIG. 18 presents wash out TOPFlash at 8, 12,18, and 24 hour time points: to investigate the effects of peptide 3 over time with a washout TOPFlash assay. To do this we followed the same procedure previously stated but performed washouts at 8, 12, 18, and 24 hour time points. This experiment was completed in duplicate.
FIG. 18 presents wash out TOPFlash at 8, 12,18, and 24 hour time points: to investigate the effects of peptide 3 over time with a washout TOPFlash assay. To do this we followed the same procedure previously stated but performed washouts at 8, 12, 18, and 24 hour time points.
This experiment was completed in duplicate.

[5] = system: transcription activity downstream TCF/LEF; experiment: TOPFlash assay in HEK293 TCF/LEF luciferase cells stimulated with LiCl and Wnt3a, peptide treatment; format: cell-based; settings: peptide at 5 μM for 6 hours, FIG. 17
Description: FIG. 17 presents a TOPFlash assay to determine transcription activity downstream TCF/LEF: HEK293 cells containing a luciferase downstream TCF/LEF were LiCl was administered 16 hours prior to treatment to stimulate the Wnt pathway. Then the cells were treated with recombinant Wnt3a to stimulate transcription and peptide at 5 μM or BC-2059 at 0.5 μM for 6 hours before luciferase expression was quantified with the One-Step Luciferase assay system.
FIG. 22 presents TOPFlash assay to determine transcription activity downstream TCF/LEF: HEK293 cells containing a luciferase downstream TCF/LEF were with LiCl 16 hours prior to treatment to stimulate the Wnt pathway. Then they were treated with recombinant Wnt3a to stimulate transcription and peptide 16 (short) and 2 (long) at 5 μM or BC-2059 at 0.5 μM for 6 hours before luciferase expression was quantified with the One-Step Luciferase assay system.
FIG. 23 presents TOPFlash assay results to determine transcription activity downstream TCF/LEF dependency to peptides: HEK293 cells containing a luciferase downstream TCF/LEF were with LiCl 16 hours prior to treatment to stimulate the Wnt pathway. Then they were treated with recombinant Wnt3a to stimulate transcription and peptide 16 (short) and 2 (long) at different concentrations (300 μM-0.01 μM) for 6 hours before luciferase expression was quantified with the One-Step Luciferase assay system. […]

[6] = system: HCT15 (colon cancer); experiment: Cell viability by CellTiter Glo; format: cell-based; settings: 300 μM-0.01 μM for 72 hours, FIG. 24
[7] = system: SW480 (colon cancer); experiment: Cell viability by CellTiter Glo; format: cell-based; settings: 300 μM-0.01 μM for 72 hours, FIG. 24
[8] = system: HCT116 (colon cancer); experiment: Cell viability by CellTiter Glo; format: cell-based; settings: 300 μM-0.01 μM for 72 hours, FIG. 24
[9] = system: H358 (lung cancer); experiment: Cell viability by CellTiter Glo; format: cell-based; settings: 300 μM-0.01 μM for 72 hours, FIG. 24
[10] = system: β-catenin-mediated transcriptional activation (TCF/LEF); experiment: TOPFlash TCF/LEF reporter assay, reporter cells transfected with peptides; format: cell-based
Description: FIGS. 15A and 15B depict the results of a TOPFlash TCF/LEF reporter assay monitoring Wnt/β-catenin signaling pathway activity in cells expressing BC2059 (i.e., positive control) and Peptides 1-5.
A TOPFlash TCF/LEF reporter assay was performed with Peptides 1-5 as described in Veeman M T, et al. (2003) Curr Biol. 13(8):680-5. This is a luciferase reporter assay of (3-catenin-mediated transcriptional activation. Tegatrabetan (BC2059) was used as a positive control in the TOPFlash TCF/LEF reporter assay. Briefly, TCF/LEF reporter cells were transfected with the nucleofection kit. After 48 hours, the ONE-STEP™ luciferase assay was performed.

Sequence: TYEKLLWTTSRVLKVLSVCS [Pep17]
- disrupting the interaction between TBL1 and β-catenin [1]: showed efficacy

Sequence: LKVLSVCSSNKPAIVEAGGMQALGLHLTDPSQRLVQNCLWTLRN [Peptide 4]
- disrupting the interaction between TBL1 and β-catenin [1]: showed efficacy
- displacement of β-catenin from the TBL1 complex [2]: able to displace β-catenin from the TBL1 complex in a dose dependent manner
- amount of β-catenin bound to TBL1 [3]: most pronounced effects

Sequence: NQESKLIILASGGPQALVNIMRTYTYEKLLWTTSRVLKVLSVCS [Peptide 3, longer peptide; in b127-b129 apparently used as CPP peptide]
- blocking transcription downstream TCF/LEF ([4]; conclusion of washout TOPFlash): specific and effective
- luciferase produced after washout ([4]; peptide washed out after 8 and 12 hours, compared to the non washout control): increase in luciferase produced
- levels of luciferase after treatment [5]: decreased levels of luciferase

Sequence: VVTCAAGILSNLTCNNYKNKMMVCQVGGIEALVRTVLRAGDRED [Peptide 5, longer peptide; in b127 apparently used as CPP peptide]
- disrupting the interaction between TBL1 and β-catenin [1]: showed efficacy
- displacement of β-catenin from the TBL1 complex [2]: able to displace β-catenin from the TBL1 complex in a dose dependent manner
- amount of β-catenin bound to TBL1 [3]: most pronounced effects
- levels of luciferase after treatment [5]: decreased levels of luciferase

Sequence: AIVEAGGMQALGLHLTDPSQ [Pep19]
- disrupting the interaction between TBL1 and β-catenin [1]: showed efficacy

Sequence: VDSVLFYAITTLHNLLLHQEGAKMAVRLAGGLQKMVALLNKTNV [Peptide 2]
- cytotoxic effect (cell viability) [6]: cytotoxic effect
- cytotoxic effect (cell viability) [7]: cytotoxic effect
- cytotoxic effect (cell viability) [8]: cytotoxic effect
- cytotoxic effect (cell viability) [9]: cytotoxic effect

Sequence: HQLSKKEASRHAIMRSPQMVSAIVRTMONTNDVETARCTAGTLH (HQLSKKEASRHAIMRSPQMVSAIVRTMQNTNDVETARCTAGTLH) [Peptide 1, longer peptide, from b112 on]
- β-catenin-mediated transcriptional activation (luciferase) ([10]; initial evaluation of all five peptides, 48 hours after transfection, FIG. 15A): significant decrease
- β-catenin-mediated transcriptional activation (luciferase) ([10]; second experiment evaluating only Peptide 1, FIG. 15B): confirmed the earlier result

Sequence: LKVLSVCSSNKPAIVEAGGM [Pep18]
- disrupting the interaction between TBL1 and β-catenin [1]: showed efficacy

Sequence: RTMQNTNDVETARCTAGTLH [Pep6]
- cytotoxic effect (cell viability) [6]: cytotoxic effect
- cytotoxic effect (cell viability) [7]: cytotoxic effect
- cytotoxic effect (cell viability) [8]: cytotoxic effect
- cytotoxic effect (cell viability) [9]: cytotoxic effect
